Assay type in all cases: cell-based
For assay [1], the system named is CDA_AURKB iPSCs and pancreatic progenitors. In words: Cell viability after 5-FC (CDA kill switch) in directed differentiation. The procedure:
(§1) To validate iCaspase 9 and cytosine deaminase (CDA) kill switch function in vitro, undifferentiated iPSCs and differentiated pancreatic progenitors with either iC9 or CDA knocked into the AURKB or CDK1 loci were tested for selective killing of pluripotent and proliferative cells in a directed differentiation into beta islet cells.
(§2) The kill switch function of CDA, which is inherently specific to proliferative cells, at the AURKB and CDK1 loci was tested in pancreatic progenitor cells generated by directed differentiation from CDA_AURKB iPSCs or CDA_CDK1 iPSCs. […] The partial loss-of-function was similarly observed in the control cell lines with CDA knocked into the AAVS1 locus.

The test system of assay [2] is control iPSC (dko) and day 12 pancreatic progenitor cells. Described as above. Particulars: increasing concentrations of 5-FC. Here is the method: as §1, §2
In assay [3] the test system is CDA_AAVS1 iPSCs and pancreatic progenitors. The description is as above. The settings on record: 100 μM 5-FC. Here is the method: as §1, §2
Assay [4] relates to CDA_CDK1 iPSCs and pancreatic progenitors. The assay is described as above. The procedure:
as §1, §2

For assay [5], the system named is CDA_AAVS1 pancreatic progenitors. Description: Ki67 staining by flow cytometry of pancreatic progenitor cells untreated or treated with 5-FC. The settings on record: 100 μM 5-FC. The procedure: (§3) In order to test whether the CDA-induced killing was specific to proliferative cells, pancreatic progenitor cells, untreated or treated with 100 μM of 5-FC, were stained for proliferation marker Ki67 and analyzed by flow cytometry.

The test system of assay [6] is CDA_AURKB pancreatic progenitors. The description is as above. Particulars: 100 μM 5-FC. The procedure: as §3
Assay [7] concerns CDA_CDK1 pancreatic progenitors. The assay is described as above. Particulars: CDA_CDK1 pancreatic progenitor culture; 100 μM 5-FC. Here is the method: as §3

Take `Nc1nc(=O)[nH]cc1F` [5-FC, 5-fluorocytosine]: the cell killing entry in assay [1] (CDA-AURKB pancreatic progenitors, day 12 of differentiation) was “partial loss of CDA function”; in assay [4] (CDA_CDK1 pancreatic progenitors, day 12 of differentiation), “partially lost CDA function”. Besides, in assay [1] (CDA_AURKB iPSCs), the “5-FC concentration at which viability began to decrease” value is reported as “about 5 μM”. For the same compound, the cell viability result in assay [1] (CDA_AURKB iPSCs, about 100 μM 5-FC) is “complete cell death”; in assay [2] it was “maintained viability”; in assay [3] (CDA_AAVS1 iPSCs), “no viable CDA_AAVS1 iPSCs”; in assay [4] (CDA_CDK1 iPSCs, 100 μM 5-FC), “complete cell death”. Further, the viability at 100 µM in assay [3] (iPSC, read-out: cells remained viable, CDA_AAVS1 pancreatic progenitors) is 50%. For the same compound, the “clearance of Ki-67 expressing cells” value in assay [5] is given as “clearance of most of the proliferative cells”; in assay [6] it was “a large subset of Ki-67 expressing cells was cleared”; in assay [7], “clearance of most of the proliferative cells”.

The values are drawn from patent publication US20250230470A1, “SAFETY SWITCHES TO CONTROL IN VITRO AND IN VIVO PROLIFERATION OF CELL THERAPY PRODUCTS” (Sana Biotechnology, Inc., priority 2024, published 2025).
